Measurements taken from PMC8327158, “PEGylated AdipoRon derivatives improve glucose and lipid metabolism under insulinopenic and high-fat diet conditions” (Journal of Lipid Research, 2021).

Tested on: HFD-fed wild-type mice
Assay: Sphingolipid levels in tissues and serum of HFD-fed mice by mass spectrometry
Assay type: in vivo, mouse
Settings: average ± SD
Description: Six-week-old wild-type male mice were fed HFD for 4 weeks or 7 months In total, 5 mg/Kg of PBS, Adiporon, AdipoRonPEG5, AdipoRonPEG6HTL were injected twice a day for 5 days. After 5 days of treatment, systemic test is performed, and serum (Before and after treatment), subcutaneous, epididymal, liver, heart samples were harvested for qPCR and sphingolipid analysis.
Flash-frozen tissue samples (~40 mg) in a borosilicate glass tube were quenched with 2.0 ml of organic extraction solvent (isopropanol: ethyl acetate, 15:85; v:v) and homogenized with a mechanical tissue disruptor. Immediately afterward, 20 μl of organic internal standard solution was added (Ceramide/Sphingoid Internal Standard Mixture II diluted 1:10 in ethanol). The mixture was vortexed for 20 s and sonicated in ultrasonic bath for 40 min at 40°C. The organic extract was allowed to reach room temperature, and 1.5 ml of HPLC water was added and a two-phase liquid-liquid extraction was performed. The upper phase was transferred to a new clean tube, and the lower aqueous phase containing the protein pellet was re-extracted with additional 2.0 ml of organic extraction solvent. The organic phases were combined and dried under nitrogen stream at 40°C. Dried extracts were stored at –80°C until analysis. For analysis of ceramides and sphingoid base species, the dried residues were reconstituted in 200 μl of methanol. Sphingomyelins required a sample dilution of 1:50 in methanol prior to analysis. Serum sphingolipids were extracted using a similar methodology requiring 25 μl of serum.
Liver, subcutaneous adipose tissue, pancreas, pancreatic islets were initially homogenized in 500 μl of cold PBS using an ultrasonic probe disruptor and keeping the sample on ice during sonication. In total, 50 μl of aqueous homogenate was aliquoted for protein determination. In total, 400 μl of the lysate was immediately quenched in 2.0 ml of organic extraction solvent.
In total, 5 μl of reconstituted samples was injected into an LC/MS/MS system for the analysis of ceramides and sphingoid bases, and 1 μl injection was required for the analysis of sphingomyelins. The system consisted of a Shimadzu LCMS-8050 triple-quadrupole mass spectrometer with the dual ion source operating in electrospray positive ionization mode. The mass spectrometer is coupled to a Shimadzu Nexera X2 UHPLC system equipped with three solvent delivery modules LC-30AD, three degassing units DGU-20A5R, an autosampler SIL-30ACMP, and a column oven CTO-20AC operating at 40°C (Shimadzu Scientific Instruments, Columbia, MD). Six sphingoid bases (d18:1 sphingosine, d18:1 sphingosine-1-phosphate, d18:1 deoxysphingosine, d18:0 sphinganine, d18:0 sphinganine-1-phosphate, d18:0 deoxysphinganine) and […] ceramide species and their metabolites (C16:0, C16:0 dihydroceramide, C16:0 glucosylceramide, C16:0 lactosylceramide, C16:0 sphingomyelin, C18:0, C18:0 dihydroceramide, C18:0 glucosylceramide, C18:0 sphingomyelin, C18:1, C20:0, C22:0, C22:0 glucosylceramide, C24:0, C24:0 dihydroceramide, C24:0 lactosylceramide, C24:0 sphingomyelin, C24:1, C24:1 dihydroceramide, C24:1 glucosylceramide, C24:1 sphingomyelin). Quantitative analysis of sphingolipids was achieved using selective reaction monitoring scan mode. Lipid separation was achieved by reverse phase LC on a 2.1 (i.d.) × 150 mm Ascentis Express C8, 2.7 micron (Supelco, Bellefonte, PA) column under gradient elution, using three different mobile phases: eluent A consisting of methanol/water/formic acid, 600/400/0.8, v/v/v with 5 mM ammonium formate, eluent B consisting of methanol/formic acid, 1,000/0.8, v/v with 5 mM ammonium formate, and eluent C consisting of CH3OH/CH2Cl2 350/650. The concentration of each metabolite was determined according to calibration curves using the peak-area ratio of analyte versus corresponding internal standard. Calibration curves were generated using serial dilutions of each target analyte.

[1] = scWAT, 5 mg/kg twice a day 5 days
[2] = serum at day 0 (before treatment)
[3] = serum at day 5, 5 mg/kg twice a day 5 days

O=C(COc1ccc(C(=O)c2ccccc2)cc1)NC1CCN(Cc2ccc(OCCOCCOCCOCCOCCO)cc2)CC1 [AdipoRonPEG5]
Hexosyl 16:0 [1]: 1715352.2 ± 544724.48 pg/mg | Hexosyl 18:0 [1]: 988756.1 ± 523374.82 pg/mg | Hexosyl 20:0 [1]: 624871.6 ± 310850.97 pg/mg | Hexosyl 22:0 [1]: 5932684.2 ± 2348171.67 pg/mg | Hexosyl 24:0 [1]: 25627611.9 ± 14360009.57 pg/mg | Hexosyl 24:1 [1]: 13838465.2 ± 7503242.47 pg/mg | Lactosyl 16:0 [1]: 44866.5 ± 53044.09 pg/mg | Lactosyl 18:0 [1]: 0.0 ± 0.0 pg/mg | Lactosyl 22:0 [1]: 41846.1 ± 19236.41 pg/mg | Lactosyl 24:1 [1]: 71016.8 ± 18649.91 pg/mg | Lactosyl C24:0 [1]: 41489.9 ± 21166.47 pg/mg | Sphingaine1P [1]: 40997.6 ± 18111.26 pg/mg | Sphinganine [1]: 35831.5 ± 25048.56 pg/mg | Sphingosine [1]: 65862.8 ± 45362.44 pg/mg | Sphingosine1P [1]: 45575.1 ± 20925.35 pg/mg | dCer 16:0 [1]: 12585.7 ± 3750.43 pg/mg | dCer 18:0 [1]: 16110.9 ± 4383.33 pg/mg | dCer 20:0 [1]: 82646.0 ± 51960.31 pg/mg | dCer 22:0 [1]: 65558.1 ± 8753.52 pg/mg | dCer 24:0 [1]: 87756.9 ± 10704.97 pg/mg | dCer 24:1 [1]: 103545.6 ± 21754.88 pg/mg | Cer 14:0 [2]: 9547.7 ± 2338.7 pg/mg | Cer 16:0 [2]: 29166.2 ± 4917.61 pg/mg | Cer 18:0 [2]: 8552.2 ± 1447.69 pg/mg | Cer 18:1 [2]: 0 pg/mg | Cer 20:0 [2]: 161041.9 ± 19909.93 pg/mg | Cer 22:0 [2]: 2248954.3 ± 477468.89 pg/mg | Cer 24:0 [2]: 1497571.4 ± 240898.06 pg/mg | Cer 24:1 [2]: 1109542.1 ± 131449.16 pg/mg | Cer 26:0 [2]: 11416.3 ± 5402.24 pg/mg | Cer 26:1 [2]: 0 pg/mg | DeoxySphinganie [2]: 0.0 ± 0.0 pg/mg | Deoxysphingosine [2]: 0.0 ± 0.0 pg/mg | Hexosyl 14:0 [2]: 2960.2 ± 1473.95 pg/mg | Hexosyl 16:0 [2]: 3186431.1 ± 124319.92 pg/mg | Hexosyl 18:0 [2]: 50804.8 ± 12885.62 pg/mg | Hexosyl 20:0 [2]: 212177.0 ± 30736.45 pg/mg | Hexosyl 22:0 [2]: 12426084.7 ± 1134587.25 pg/mg | Hexosyl 24:0 [2]: 1547284.6 ± 152581.98 pg/mg | Hexosyl 24:1 [2]: 4176146.7 ± 370105.27 pg/mg | Lactosyl 16:0 [2]: 97139.2 ± 3984.55 pg/mg | Lactosyl 18:0 [2]: 0.0 ± 0.0 pg/mg | Lactosyl 22:0 [2]: 67539.8 ± 8954.59 pg/mg | Lactosyl 24:1 [2]: 91085.1 ± 17618.54 pg/mg | Lactosyl C24:0 [2]: 106966.9 ± 12842.2 pg/mg | Sphingaine1P [2]: 236098.7 ± 23069.11 pg/mg | Sphinganine [2]: 40000.3 ± 8021.4 pg/mg | Sphingosine [2]: 34674.5 ± 9280.02 pg/mg | Sphingosine1P [2]: 626634.8 ± 40618.85 pg/mg | dCer 16:0 [2]: 19797.0 ± 3523.66 pg/mg | dCer 18:0 [2]: 11474.0 ± 1631.86 pg/mg | dCer 20:0 [2]: 4088.3 ± 831.07 pg/mg | dCer 22:0 [2]: 358570.9 ± 58282.32 pg/mg | dCer 24:0 [2]: 224332.4 ± 35925.97 pg/mg | dCer 24:1 [2]: 127711.1 ± 26772.71 pg/mg | Cer 14:0 [3]: 9929.6 ± 3137.7 pg/mg | Cer 16:0 [3]: 15778.4 ± 1918.13 pg/mg | Cer 18:0 [3]: 13708.7 ± 1433.97 pg/mg | Cer 18:1 [3]: 0 pg/mg | Cer 20:0 [3]: 132529.6 ± 32152.61 pg/mg | Cer 22:0 [3]: 1388023.2 ± 196403.0 pg/mg | Cer 24:0 [3]: 1824217.1 ± 192203.29 pg/mg | Cer 24:1 [3]: 1024425.3 ± 215659.12 pg/mg | Cer 26:0 [3]: 16852.6 ± 6836.06 pg/mg | Cer 26:1 [3]: 0 pg/mg | DeoxySphinganie [3]: 0.0 ± 0.0 pg/mg | Deoxysphingosine [3]: 0.0 ± 0.0 pg/mg | Hexosyl 14:0 [3]: 2152.8 ± 1534.14 pg/mg | Hexosyl 16:0 [3]: 4458327.8 ± 279958.81 pg/mg | Hexosyl 18:0 [3]: 102580.4 ± 20477.28 pg/mg | Hexosyl 20:0 [3]: 312105.6 ± 82139.38 pg/mg | Hexosyl 22:0 [3]: 7780658.1 ± 1388198.99 pg/mg | Hexosyl 24:0 [3]: 1624021.9 ± 177684.63 pg/mg | Hexosyl 24:1 [3]: 3454314.7 ± 273336.65 pg/mg | Lactosyl 16:0 [3]: 90624.9 ± 13005.26 pg/mg | Lactosyl 18:0 [3]: 0.0 ± 0.0 pg/mg | Lactosyl 22:0 [3]: 65007.0 ± 14500.42 pg/mg | Lactosyl 24:1 [3]: 157880.8 ± 14580.32 pg/mg | Lactosyl C24:0 [3]: 128620.1 ± 18235.69 pg/mg | Sphingaine1P [3]: 512041.7 ± 138152.22 pg/mg | Sphinganine [3]: 15276.5 ± 1962.03 pg/mg | Sphingosine [3]: 21363.8 ± 828.59 pg/mg | Sphingosine1P [3]: 1121550.6 ± 208889.89 pg/mg | dCer 16:0 [3]: 3599.4 ± 848.4 pg/mg | dCer 18:0 [3]: 4287.0 ± 935.1 pg/mg | dCer 20:0 [3]: 2230.0 ± 831.07 pg/mg | dCer 22:0 [3]: 88406.3 ± 22461.25 pg/mg | dCer 24:0 [3]: 67386.7 ± 20818.51 pg/mg | dCer 24:1 [3]: 33950.3 ± 10616.3 pg/mg
